As usually defined, the kcat/Km is the turnover number divided by the Michaelis constant. By IC50 is commonly meant the concentration that gives 50% inhibition. A low value points to greater potency.

The results in this text go back to patent publication US9873883B2, “Glyphosate resistant plants and associated methods” (Dow AgroSciences LLC, priority 2012, dated 2018).

The target of assay [1] is T1, Brassica napus (canola) EPSP synthase DGT-3 (GENBANK P17688) variant DGT-3 v6 (G→A) (Brassica napus, UniProt P17688, G173A).
T1 construct: made in house; host or cells: E. coli Rosetta2 (DE3)
T1 sequence (P17688 73-516 G173A): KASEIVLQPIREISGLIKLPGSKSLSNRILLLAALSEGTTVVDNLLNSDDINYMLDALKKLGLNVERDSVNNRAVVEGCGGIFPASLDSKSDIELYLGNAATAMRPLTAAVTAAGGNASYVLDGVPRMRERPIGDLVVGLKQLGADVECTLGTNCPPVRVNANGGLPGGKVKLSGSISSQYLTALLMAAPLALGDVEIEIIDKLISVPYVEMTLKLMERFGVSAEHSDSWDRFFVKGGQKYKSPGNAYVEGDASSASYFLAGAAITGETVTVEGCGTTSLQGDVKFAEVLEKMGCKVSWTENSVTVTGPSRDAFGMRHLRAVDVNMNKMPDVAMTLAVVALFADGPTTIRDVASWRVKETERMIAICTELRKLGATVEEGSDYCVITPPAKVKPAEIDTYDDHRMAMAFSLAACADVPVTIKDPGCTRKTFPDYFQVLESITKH
The assay is described as follows: In vitro kinetic assay (inorganic phosphate production, malachite green). The class given is biochemical. The settings on record: for IC50: IC50 (glyphosate). An excerpt: (§1) The following Class I enzymes: DGT-1 from Glycine max, DGT-3 from Brassica napus (GENBANK ACC NO: P17688), and DGT-7 from Triticum aestivum (GENBANK ACC NO: EU977181) were used as a comparison. The Class I EPSP synthase enzymes and mutant variants thereof were synthesized and evaluated. A mutation introduced into the plant EPSP synthase enzymes consisted of the Glycine to Alanine mutation made within the EPSP synthase enzyme at a similar location as that of the G96A mutation from the E. coli version of the enzyme. In addition, Threonine to Isoleucine and Proline to Serine mutations were introduced within these Class I EPSP synthase enzymes at analogous positions as that of amino acid 97 (T to I) and amino acid 101 (P to S) in the EPSP synthase of E. coli as described in Funke et al., (2009).
(§2) The location of the amino acid residue which was mutated from glycine to alanine is indicated by the first asterisk. The location of the amino acid residue which was mutated from threonine to isoleucine is indicated by the second asterisk. The location of the third amino acid residue which was mutated from proline to serine is indicated by the third asterisk. These mutations were introduced into different versions of DGT-1, DGT-3, and DGT-7. The different versions of the genes which contain the mutations are described in more detail below.
(§3) Additional constructs containing the dgt-1, dgt-3 and dgt-7 were synthesized. These constructs were used for in vitro testing of the dgt-1 v5, dgt-1 v6, dgt-1 v7, dgt-1 v8, dgt-3 v6, dgt-3 v7, dgt-3 v8, dgt-7 v5, dgt-7 v6, dgt-7 v7, and dgt-7 v8 gene sequences were outsourced to GeneArt for synthesis and cloning. The synthesized genes were cloned into the pET28 expression vector. The resulting constructions were labeled as pDAB102028 containing dgt-1 v5, pDAB102029 containing dgt-1 v6, pDAB102032 containing dgt-1 v7, pDAB102034 containing dgt-1 v8, pDAB100429 containing dgt-3 v6, pDAB100442 containing dgt-3 v7, pDAB100430 containing dgt-3 v8, pDAB102036 containing dgt-7 v5, pDAB102038 containing dgt-7 v6, pDAB102040 containing dgt-7 v7, and pDAB102042 containing dgt-7 v8.
(§4) Recombinant DGT proteins were overexpressed in Rosetta2™ (DE3) cells (Novagen, Madison, Wis.) from the constructs described above. A single colony was used to inoculate 50 mL starter cultures of LB containing chloramphenicol (25 μg/mL) and kanamycin (50 μg/mL) which were cultivated overnight at 37° C. The overnight cultures were used to inoculate 1 L of LB containing chloramphenicol (25 μg/mL) and kanamycin (50 μg/mL). The cultures were grown at 37° C. to an O.D.600=0.6 then placed in an ice water bath for 10 minutes. Expression of the target proteins was achieved by addition of IPTG to a final concentration of 500 μM. Induction was allowed to proceed overnight at 20° C. followed by harvesting via centrifugation at 8,000 rpm for 20 minutes. The cell pellets were stored at −80° C. until required for purification. All purification steps were carried out at 4° C.
(§5) Cell pellets from 1 L cultures were resuspended in 20-30 mL Buffer A (50 mM HEPES pH 7.5, 150 mM KCl, 2 mM DTT, 1 mM EDTA, 20 mM imidazole, and 5% glycerol). COMPLETE™ protease inhibitor cocktail (1 tablet/50 mL, Roche, Indianapolis, Ind.) and lysozyme (1 mg/mL, Sigma-Aldrich, St. Louis, Mo.) were then added and the suspension was stirred for 20 minutes. Cell lysis was performed using a Branson Sonifier 250 (3×60 second bursts) followed by removal of the cell debris by centrifugation at 16,000 rpm for 45 minutes. DGT enzymes were purified to homogeneity in one step via immobilized metal affinity chromatography (IMAC) using a 5 mL HisTrap FF crude column. The column was equilibrated in Buffer A and the sample was loaded in the same buffer. The column was then washed with 10 column volumes of Buffer A followed by elution in a 0-100% Buffer B (50 mM HEPES pH 7.5, 200 mM KCl, 2 mM DTT, 1 mM EDTA, 500 mM imidazole, and 5% glycerol) linear gradient over 25 column volumes. […]

The target in assay [2] is T2, Glycine max (soybean) EPSP synthase DGT-1 variant DGT-1 v8 (T→I, P→S; TIPS) (Glycine max, UniProt I1J7U9, P187S/T183I).
T2 sequence (I1J7U9 with tags, fused parts or gaps T183I/P187S): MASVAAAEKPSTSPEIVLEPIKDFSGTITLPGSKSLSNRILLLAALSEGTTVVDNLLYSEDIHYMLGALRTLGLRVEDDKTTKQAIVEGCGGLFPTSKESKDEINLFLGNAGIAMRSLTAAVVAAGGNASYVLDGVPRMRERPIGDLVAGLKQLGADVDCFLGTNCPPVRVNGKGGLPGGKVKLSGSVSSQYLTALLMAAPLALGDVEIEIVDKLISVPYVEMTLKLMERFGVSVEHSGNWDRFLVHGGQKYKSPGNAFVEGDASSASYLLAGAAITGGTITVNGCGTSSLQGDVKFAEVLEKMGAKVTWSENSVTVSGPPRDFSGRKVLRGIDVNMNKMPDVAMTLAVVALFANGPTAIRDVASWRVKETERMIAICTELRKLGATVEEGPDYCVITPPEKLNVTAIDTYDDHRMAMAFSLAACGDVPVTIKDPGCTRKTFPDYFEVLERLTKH
The description is as above. The class given is biochemical.
From the text: as §1, §2, §3, §4, §5

Consider `C=C(OP(=O)(O)O)C(=O)O` [PEP, phosphoenolpyruvate], for which, in assay [1] (G to A mutation vs un-mutated), the “increase of Km for PEP” value was about 8 fold. For the same compound, the kcat/Km in assay [2] (PEP, pH 7.5, 1 mM S3P) came out at 12300 M⁻¹ s⁻¹.
On to `O=C(O)CNCP(=O)(O)O` [glyphosate, N-(phosphonomethyl)glycine], for which the IC50 in assay [1] (at 60 μM PEP) is 8.7 mM; in assay [1] (at 1 mM PEP), 15.8 mM; in assay [2] (IC50 (glyphosate), at 60 μM PEP) it was 5.9 mM; in assay [2] (IC50 (glyphosate), at 1 mM PEP), 13.3 mM; in assay [2] (tolerance to glyphosate, PEP concentration not given) it was 3 to 6 mM.
